PMC10419799, “Modes of Action of a Novel c-MYC Inhibiting 1,2,4-Oxadiazole Derivative in Leukemia and Breast Cancer Cells” (Molecules, 2023)

Molecular target: T1, c-MYC (Homo sapiens, UniProt P01106)
T1 construct: human recombinant c-MYC protein (Abcam ab169901)
Assay: microscale thermophoresis with RED-NHS labelled recombinant c-MYC
Assay type: binding

T1 sequence (P01106 16-454): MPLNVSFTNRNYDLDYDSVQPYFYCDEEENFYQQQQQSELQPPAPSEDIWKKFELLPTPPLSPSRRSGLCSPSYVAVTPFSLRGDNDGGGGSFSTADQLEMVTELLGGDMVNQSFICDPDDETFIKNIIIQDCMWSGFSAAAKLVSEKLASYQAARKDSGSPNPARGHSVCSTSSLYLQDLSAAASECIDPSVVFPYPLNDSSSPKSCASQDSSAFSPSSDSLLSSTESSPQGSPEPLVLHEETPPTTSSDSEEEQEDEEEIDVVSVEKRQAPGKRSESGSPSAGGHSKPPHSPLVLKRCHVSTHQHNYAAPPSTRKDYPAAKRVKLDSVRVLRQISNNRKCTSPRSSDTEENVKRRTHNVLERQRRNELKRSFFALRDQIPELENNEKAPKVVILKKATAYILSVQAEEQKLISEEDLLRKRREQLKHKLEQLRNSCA

## Cc1ccc(NC(=O)N2Cc3[nH]cnc3C[C@H]2c2nc(-c3ccc4ccccc4c3)no2)cc1 [ZINC15675948, (6S)-N-(4-methylphenyl)-6-(3-naphthalen-2-yl-1,2,4-oxadiazol-5-yl)-3,4,6,7-tetrahydroimidazo [4,5-c]pyridine-5-carboxamide]
  Kd: 1.08 ± 0.1 µM
